Legend:
Experiment in all cases: relative viability (nuclei count vs DMSO), 5 days (fraction); higher = more cells survive
Wnt-C59 + Trametinib = compound: CC1=NC=CC(=C1)C2=CC=C(C=C2)CC(=O)NC3=CC=C(C=C3)C4=CN=CC=C4 [Wnt-C59] + CC(=O)Nc1cccc(-n2c(=O)n(C3CC3)c(=O)c3c(Nc4ccc(I)cc4F)n(C)c(=O)c(C)c32)c1 [Trametinib] (partner 0.02 µM)
How it was run: (§1)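 Relative viability was taken as the ratio of nuclei in treated wells to nuclei in vehicle wells. Lung cancer cell lines in 1536-well plates received compounds by pin tool one day after seeding, either one drug alone or a fixed anchor-drug dose plus five library-drug doses (not always all listed) in √10 steps. Nuclei were counted on 4× images after 5 days of treatment, and values are medians of duplicate plates.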

Wnt-C59 + Palbociclib = compound: CC1=NC=CC(=C1)C2=CC=C(C=C2)CC(=O)NC3=CC=C(C=C3)C4=CN=CC=C4 [Wnt-C59] + CC(=O)c1c(C)c2cnc(Nc3ccc(N4CCNCC4)cn3)nc2n(C2CCCC2)c1=O [Palbociclib] (partner 0.5 µM)
How it was run: as §1

Wnt-C59 + Phenformin = compound: CC1=NC=CC(=C1)C2=CC=C(C=C2)CC(=O)NC3=CC=C(C=C3)C4=CN=CC=C4 [Wnt-C59] + N=C(N)NC(=N)NCCc1ccccc1 [Phenformin] (partner 250 µM)
How it was run: as §1

Lapatinib + Navitoclax = compound: CS(=O)(=O)CCNCc1ccc(-c2ccc3ncnc(Nc4ccc(OCc5cccc(F)c5)c(Cl)c4)c3c2)o1 [Lapatinib] + CC1(C)CCC(c2ccc(Cl)cc2)=C(CN2CCN(c3ccc(C(=O)NS(=O)(=O)c4ccc(N[C@H](CCN5CCOCC5)CSc5ccccc5)c(S(=O)(=O)C(F)(F)F)c4)cc3)CC2)C1 [Navitoclax] (partner 0.5 µM)
How it was run: as §1

| Cell Line | relative viability (Wnt-C59 + Trametinib; first compound 0.001 µM) | relative viability (Wnt-C59 + Trametinib; first compound 0.01 µM) | relative viability (Wnt-C59 + Trametinib; first compound 0.03162 µM) | relative viability (Wnt-C59 + Trametinib; first compound 0.1 µM) | relative viability (Wnt-C59 + Palbociclib; first compound 0.001 µM) | relative viability (Wnt-C59 + Palbociclib; first compound 0.01 µM) | relative viability (Wnt-C59 + Palbociclib; first compound 0.03162 µM) | relative viability (Wnt-C59 + Palbociclib; first compound 0.1 µM) | relative viability (Wnt-C59 + Phenformin; first compound 0.001 µM) | relative viability (Wnt-C59 + Phenformin; first compound 0.01 µM) | relative viability (Wnt-C59 + Phenformin; first compound 0.03162 µM) | relative viability (Wnt-C59 + Phenformin; first compound 0.1 µM) | relative viability (Lapatinib + Navitoclax; first compound 0.02 µM) | relative viability (Lapatinib + Navitoclax; first compound 0.06325 µM) | relative viability (Lapatinib + Navitoclax; first compound 0.2 µM) | relative viability (Lapatinib + Navitoclax; first compound 0.6325 µM) | relative viability (Lapatinib + Navitoclax; first compound 2 µM) |
| --- | --- | --- | --- | --- | --- | --- | --- | --- | --- | --- | --- | --- | --- | --- | --- | --- | --- |
| NCI-H1437 | 0.51 | 0.562 | 0.481 | 0.579 | 0.31 | 0.309 | 0.336 | 0.335 | 0.297 | 0.296 | 0.297 | 0.26 | 1.09 | 1.08 | 1.11 | 1.03 | 1 |
| BEN | 1.13 | 0.995 | 1 | 1.04 | 0.477 | 0.437 | 0.538 | 0.534 | 0.292 | 0.27 | 0.269 | 0.247 | 0.0643 | 0.0706 | 0.061 | 0.0751 | 0.0557 |
| LOU-NH91 | 0.817 | 0.788 | 0.802 | 0.792 | 0.512 | 0.573 | 0.564 | 0.513 | 0.793 | 0.641 | 0.601 | 0.672 | 0.555 | 0.558 | 0.502 | 0.541 | 0.324 |
| PC-3 [JPC-3] | 0.78 | 0.736 | 0.623 | 0.785 | 0.498 | 0.532 | 0.505 | 0.512 | 0.486 | 0.467 | 0.52 | 0.502 |  | 0.797 | 0.779 | 0.885 | 0.689 |
| NCI-H1355 | 0.455 | 0.404 | 0.423 | 0.373 | 0.408 | 0.375 | 0.408 | 0.375 | 0.446 | 0.42 | 0.456 | 0.475 |  | 0.861 | 0.824 | 0.906 | 0.498 |
| NCI-H520 | 0.709 | 0.743 | 0.598 | 0.643 | 0.244 | 0.208 | 0.239 | 0.222 | 0.503 | 0.59 | 0.59 | 0.55 | 0.951 | 1.06 | 1.08 | 1.25 | 0.972 |
| SK-LU-1 | 0.561 | 0.506 | 0.533 | 0.422 | 0.356 | 0.343 | 0.423 | 0.359 | 0.476 | 0.49 | 0.506 | 0.503 |  | 0.831 | 0.747 | 0.876 | 1.29 |
| NCI-H2228 | 0.549 | 0.574 | 0.477 | 0.499 | 1.06 | 0.633 | 0.884 | 0.869 | 0.325 | 0.385 | 0.294 | 0.415 | 0.838 | 0.807 | 0.809 | 1.28 | 0.912 |
| EKVX | 0.366 |  | 0.324 | 0.319 | 0.389 |  | 0.327 | 0.179 | 0.225 | 0.216 | 0.216 | 0.241 | 0.859 | 0.916 | 0.809 | 0.77 | 0.199 |
| HCC-78 | 0.691 | 0.746 | 0.908 | 0.854 | 0.476 | 0.488 | 0.494 | 0.455 | 0.548 | 0.685 | 0.701 | 0.72 |  | 0.651 | 0.752 | 0.57 | 0.699 |
| NCI-H2085 | 0.599 | 0.577 | 0.58 | 0.614 | 0.459 | 0.425 | 0.477 | 0.471 | 0.757 | 0.649 | 0.691 | 0.673 | 1.06 | 0.925 | 0.987 | 1.01 | 0.805 |
| NCI-H23 | 0.396 | 0.346 | 0.385 | 0.432 | 0.51 | 0.508 | 0.521 | 0.474 | 0.842 | 0.663 | 0.907 | 0.749 |  |  | 0.836 | 0.777 | 0.615 |
| NCI-H647 | 0.503 | 0.404 | 0.528 | 0.47 | 0.346 | 0.326 | 0.388 | 0.316 | 0.479 | 0.453 | 0.578 | 0.481 |  | 1.14 | 1.05 | 1.04 | 0.963 |
| NCI-H1395 | 0.931 | 0.995 | 1.04 | 1.02 | 0.598 | 0.652 | 0.566 | 0.573 | 0.442 | 0.423 | 0.495 | 0.429 |  | 1.05 | 1.14 | 1.62 | 1.14 |
| COR-L 105 | 0.444 | 0.433 | 0.448 | 0.488 | 0.362 | 0.373 | 0.379 | 0.438 | 0.48 | 0.509 | 0.477 | 0.479 | 0.701 | 0.744 | 0.77 | 0.574 | 0.302 |
| NCI-H1651 | 0.857 | 0.875 | 0.783 | 0.773 | 0.526 | 0.499 | 0.452 | 0.479 | 0.344 | 0.345 | 0.377 | 0.332 | 1.05 | 0.968 | 0.971 | 0.899 | 0.906 |
| PC-14 | 0.97 | 0.911 | 0.9 | 0.729 | 0.688 | 0.496 | 0.552 | 0.506 | 0.583 | 0.713 | 0.478 | 0.748 | 0.956 | 0.991 | 0.958 | 0.985 | 0.839 |

— the supplement of paper PMC10307832
